The target of the first experiment is T1, TYK2 (Homo sapiens, UniProt P29597). The experiment can be described thus: TYK2 degradation MSD assay in human PBMC cells. Format: cell-based. More on the design: endogenous in cells; host or cells: human PBMC. The note with it: 4 to 24 hours incubation, read-out: TYK2 MSD DC50 rating in human PBMC. The gist of the method:
(§1)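 MSD electrochemiluminescence readout of residual TYK2 in RIPA lysates after 4–24 h compound exposure at 37° C. Dosing: 9 concentrations, 1:3 steps, top 1 to 10 μM. DC50 fitted by four-parameter inhibitor vs. response regression.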
T1 sequence (P29597 whole entry): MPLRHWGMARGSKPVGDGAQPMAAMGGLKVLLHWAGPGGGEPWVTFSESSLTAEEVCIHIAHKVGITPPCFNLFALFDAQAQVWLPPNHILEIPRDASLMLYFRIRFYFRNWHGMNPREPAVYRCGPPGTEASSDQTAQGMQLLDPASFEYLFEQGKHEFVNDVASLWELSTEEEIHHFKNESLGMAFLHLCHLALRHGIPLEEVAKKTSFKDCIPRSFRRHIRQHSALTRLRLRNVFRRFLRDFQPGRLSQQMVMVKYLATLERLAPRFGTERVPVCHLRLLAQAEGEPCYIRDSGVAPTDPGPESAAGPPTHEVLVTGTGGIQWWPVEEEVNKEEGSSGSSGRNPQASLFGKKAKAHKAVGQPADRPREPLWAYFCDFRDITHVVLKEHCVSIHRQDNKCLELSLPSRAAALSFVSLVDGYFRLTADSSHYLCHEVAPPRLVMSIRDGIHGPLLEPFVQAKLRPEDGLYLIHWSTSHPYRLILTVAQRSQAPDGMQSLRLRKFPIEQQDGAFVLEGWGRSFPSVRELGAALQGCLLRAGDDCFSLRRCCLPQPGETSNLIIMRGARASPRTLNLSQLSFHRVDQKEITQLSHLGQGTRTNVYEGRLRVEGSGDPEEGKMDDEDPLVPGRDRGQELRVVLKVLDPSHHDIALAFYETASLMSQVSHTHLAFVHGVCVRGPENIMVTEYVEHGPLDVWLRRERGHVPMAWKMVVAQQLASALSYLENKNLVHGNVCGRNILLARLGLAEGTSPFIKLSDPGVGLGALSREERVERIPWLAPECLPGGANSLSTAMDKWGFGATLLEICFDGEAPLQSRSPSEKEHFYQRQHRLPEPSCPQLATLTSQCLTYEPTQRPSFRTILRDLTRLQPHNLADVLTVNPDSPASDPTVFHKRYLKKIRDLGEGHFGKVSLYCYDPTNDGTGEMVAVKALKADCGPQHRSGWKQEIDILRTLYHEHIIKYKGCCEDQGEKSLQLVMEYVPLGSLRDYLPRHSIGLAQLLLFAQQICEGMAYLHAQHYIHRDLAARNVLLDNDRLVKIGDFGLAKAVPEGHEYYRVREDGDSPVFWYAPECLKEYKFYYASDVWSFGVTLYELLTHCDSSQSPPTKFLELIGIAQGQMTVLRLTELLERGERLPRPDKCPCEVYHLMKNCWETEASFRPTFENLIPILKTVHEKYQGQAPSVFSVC
In the case of `CNC(=O)c1cnc(Nc2ccc(C3CCN(Cc4cccc5c4n(C)c(=O)n5C4CCC(=O)NC4=O)CC3)cn2)cc1Nc1cccc(-c2ncc(F)cn2)c1OC` (stereo not drawn) [Example K174], the 50% degradation concentration (DC50) (as a rule, the concentration at which degradation of the target reaches its halfway point) was over 100 nM.
The same measure, in the same setting: under `CNC(=O)c1cnc(Nc2ccc(CN3CCC(N(C)c4ccc5c(c4)n(C)c(=O)n5C4CCC(=O)NC4=O)CC3)cn2)cc1Nc1cccc(-c2ncc(F)cn2)c1OC` (stereo not drawn) [Example K175] stands under 1 nM; under `CNC(=O)c1cnc(Nc2cc(CN3CCN(c4cccc5c4n(C)c(=O)n5C4CCC(=O)NC4=O)CC3)ccn2)cc1Nc1cccc(-c2ncc(F)cn2)c1OC` (stereo not drawn) [Example K176], under 1 nM.
Still for that read-out and setting: under `CNC(=O)c1cnc(Nc2ccc(CN3CCN(c4ccc5c(c4)n(C)c(=O)n5C4CCC(=O)NC4=O)CC3)cn2)cc1Nc1cccc(-c2ncc(F)cn2)c1OC` (stereo not drawn) [Example K177] stands under 1 nM; under `CNC(=O)c1cnc(Nc2ccc(C(=O)N(C)C3CCN(c4ccc5c(c4)n(C)c(=O)n5C4CCC(=O)NC4=O)CC3)cn2)cc1Nc1cccc(-c2ncc(F)cn2)c1OC` (stereo not drawn) [Example K178], under 1 nM; under `COc1c(Nc2cc(Nc3cc(C(=O)NCCCCc4cccc5c4n(C)c(=O)n5C4CCC(=O)NC4=O)ccn3)ncc2C(=O)NC2CC2)cccc1-c1ncc(F)cn1` (stereo not drawn) [Example K179], 10 to 100 nM.
On the same count and under the same terms, for `COc1c(Nc2cc(Nc3ccc(C(=O)NCCCCc4cccc5c4n(C)c(=O)n5C4CCC(=O)NC4=O)cn3)ncc2C(=O)NC2CC2)cccc1-c1ncc(F)cn1` (stereo not drawn) [Example K180] the value was 1 to 10 nM.
As for `CCNC(=O)c1cnc(Nc2cc(C(=O)NCCCCc3cccc4c3n(C)c(=O)n4C3CCC(=O)NC3=O)ccn2)cc1Nc1cccc(-c2ncc(F)cn2)c1OC` (stereo not drawn) [Example K181], the half-maximal degradation concentration (DC50) lay in the range of 1 to 10 nM.
With `CCNC(=O)c1cnc(Nc2ccc(C(=O)NCCCCc3cccc4c3n(C)c(=O)n4C3CCC(=O)NC3=O)cn2)cc1Nc1cccc(-c2ncc(F)cn2)c1OC` (stereo not drawn) [Example K182], the 50% degradation concentration (DC50) fell in the range of 1 to 10 nM.
The same measure, in the same setting: for `CNC(=O)c1cnc(NC(=O)NCCCCCCCCCc2cccc3c2n(C)c(=O)n3C2CCC(=O)NC2=O)cc1Nc1cccc(-c2ncc(F)cn2)c1OC` (stereo not drawn) [Example K183] the value was 1 to 10 nM.
With `CNC(=O)c1cnc(NC(=O)NCCCCCCCCc2cccc3c2n(C)c(=O)n3C2CCC(=O)NC2=O)cc1Nc1cccc(-c2ncc(F)cn2)c1OC` (stereo not drawn) [Example K184], the DC50 was 1 to 10 nM.
`CNC(=O)c1cnc(NC(=O)NCCCCCCCc2cccc3c2n(C)c(=O)n3C2CCC(=O)NC2=O)cc1Nc1cccc(-c2ncc(F)cn2)c1OC` (stereo not drawn) [Example K185]: the DC50 is 1 to 10 nM.
Take `CNC(=O)c1cnc(NC(=O)NCCCCCCCCCc2ccc3c(c2)n(C)c(=O)n3C2CCC(=O)NC2=O)cc1Nc1cccc(-c2ncc(F)cn2)c1OC` (stereo not drawn) [Example K186]: the DC50 is 1 to 10 nM.
Still for that read-out and setting: under `CNC(=O)c1cnc(NC(=O)NCCCCCCCCc2ccc3c(c2)n(C)c(=O)n3C2CCC(=O)NC2=O)cc1Nc1cccc(-c2ncc(F)cn2)c1OC` (stereo not drawn) [Example K187] stands 1 to 10 nM.
The same measure, in the same setting: for `CNC(=O)c1cnc(NC(=O)NCCCCCCCc2ccc3c(c2)n(C)c(=O)n3C2CCC(=O)NC2=O)cc1Nc1cccc(-c2ncc(F)cn2)c1OC` (stereo not drawn) [Example K188] the value was under 1 nM; for `CNC(=O)c1cnc(Nc2ccc(C(=O)NCCCCc3cccc4c3n(C)c(=O)n4C3CCC(=O)NC3=O)cn2)cc1Nc1cccn(C)c1=O` (stereo not drawn) [Example K189], 10 to 100 nM.

The next experiment addresses T1, TYK2. The experiment can be described thus: TYK2 degradation MSD assay in EBV-B cells. Particulars: 4 to 24 hours incubation, read-out: TYK2 MSD DC50 rating in EBV-B. More on the design: endogenous in cells; host or cells: EBV-B cells. Format: cell-based. The essentials:
as §1
As to `CNC(=O)c1cnc(Nc2ccc(C3CCN(Cc4cccc5c4n(C)c(=O)n5C4CCC(=O)NC4=O)CC3)cn2)cc1Nc1cccc(-c2ncc(F)cn2)c1OC` (stereo not drawn) [Example K174], the DC50 is 1 to 10 nM.
Same read-out and setting: under `CNC(=O)c1cnc(Nc2ccc(CN3CCC(N(C)c4ccc5c(c4)n(C)c(=O)n5C4CCC(=O)NC4=O)CC3)cn2)cc1Nc1cccc(-c2ncc(F)cn2)c1OC` (stereo not drawn) [Example K175] stands under 1 nM; under `CNC(=O)c1cnc(Nc2cc(CN3CCN(c4cccc5c4n(C)c(=O)n5C4CCC(=O)NC4=O)CC3)ccn2)cc1Nc1cccc(-c2ncc(F)cn2)c1OC` (stereo not drawn) [Example K176], 1 to 10 nM; under `CNC(=O)c1cnc(Nc2ccc(CN3CCN(c4ccc5c(c4)n(C)c(=O)n5C4CCC(=O)NC4=O)CC3)cn2)cc1Nc1cccc(-c2ncc(F)cn2)c1OC` (stereo not drawn) [Example K177], under 1 nM.
Still for that read-out and setting: for `CNC(=O)c1cnc(Nc2ccc(C(=O)N(C)C3CCN(c4ccc5c(c4)n(C)c(=O)n5C4CCC(=O)NC4=O)CC3)cn2)cc1Nc1cccc(-c2ncc(F)cn2)c1OC` (stereo not drawn) [Example K178] the value was under 1 nM; for `COc1c(Nc2cc(Nc3cc(C(=O)NCCCCc4cccc5c4n(C)c(=O)n5C4CCC(=O)NC4=O)ccn3)ncc2C(=O)NC2CC2)cccc1-c1ncc(F)cn1` (stereo not drawn) [Example K179], over 100 nM.
As to `COc1c(Nc2cc(Nc3ccc(C(=O)NCCCCc4cccc5c4n(C)c(=O)n5C4CCC(=O)NC4=O)cn3)ncc2C(=O)NC2CC2)cccc1-c1ncc(F)cn1` (stereo not drawn) [Example K180], the DC50 lay within 10 to 100 nM.
In the case of `CCNC(=O)c1cnc(Nc2cc(C(=O)NCCCCc3cccc4c3n(C)c(=O)n4C3CCC(=O)NC3=O)ccn2)cc1Nc1cccc(-c2ncc(F)cn2)c1OC` (stereo not drawn) [Example K181], the DC50 was over 100 nM.
On to `CCNC(=O)c1cnc(Nc2ccc(C(=O)NCCCCc3cccc4c3n(C)c(=O)n4C3CCC(=O)NC3=O)cn2)cc1Nc1cccc(-c2ncc(F)cn2)c1OC` (stereo not drawn) [Example K182], for which the DC50 was 10 to 100 nM.
On the same count and under the same terms, under `CNC(=O)c1cnc(NC(=O)NCCCCCCCCCc2cccc3c2n(C)c(=O)n3C2CCC(=O)NC2=O)cc1Nc1cccc(-c2ncc(F)cn2)c1OC` (stereo not drawn) [Example K183] stands over 100 nM; under `CNC(=O)c1cnc(NC(=O)NCCCCCCCCc2cccc3c2n(C)c(=O)n3C2CCC(=O)NC2=O)cc1Nc1cccc(-c2ncc(F)cn2)c1OC` (stereo not drawn) [Example K184], over 100 nM; under `CNC(=O)c1cnc(NC(=O)NCCCCCCCc2cccc3c2n(C)c(=O)n3C2CCC(=O)NC2=O)cc1Nc1cccc(-c2ncc(F)cn2)c1OC` (stereo not drawn) [Example K185], over 100 nM.
As for `CNC(=O)c1cnc(NC(=O)NCCCCCCCCCc2ccc3c(c2)n(C)c(=O)n3C2CCC(=O)NC2=O)cc1Nc1cccc(-c2ncc(F)cn2)c1OC` (stereo not drawn) [Example K186], the DC50 was over 100 nM.
Take `CNC(=O)c1cnc(NC(=O)NCCCCCCCCc2ccc3c(c2)n(C)c(=O)n3C2CCC(=O)NC2=O)cc1Nc1cccc(-c2ncc(F)cn2)c1OC` (stereo not drawn) [Example K187]: the DC50 is over 100 nM.
With `CNC(=O)c1cnc(NC(=O)NCCCCCCCc2ccc3c(c2)n(C)c(=O)n3C2CCC(=O)NC2=O)cc1Nc1cccc(-c2ncc(F)cn2)c1OC` (stereo not drawn) [Example K188], the DC50 is over 100 nM.
As to `CNC(=O)c1cnc(Nc2ccc(C(=O)NCCCCc3cccc4c3n(C)c(=O)n4C3CCC(=O)NC3=O)cn2)cc1Nc1cccn(C)c1=O` (stereo not drawn) [Example K189], the DC50 was over 100 nM.

In the next experiment the target is T1, TYK2. Put plainly: TYK2 degradation MSD assay in OCI-LY10 cells. The class given is cell-based. Particulars: 4 to 24 hours incubation, read-out: TYK2 MSD DC50 rating in OCI-LY10. The arrangement: endogenous in cells; host or cells: EBV-B cells. The essentials:
as §1
On to `CNC(=O)c1cnc(Nc2ccc(C3CCN(Cc4cccc5c4n(C)c(=O)n5C4CCC(=O)NC4=O)CC3)cn2)cc1Nc1cccc(-c2ncc(F)cn2)c1OC` (stereo not drawn) [Example K174], for which the DC50 is over 100 nM.
For `CNC(=O)c1cnc(Nc2ccc(CN3CCC(N(C)c4ccc5c(c4)n(C)c(=O)n5C4CCC(=O)NC4=O)CC3)cn2)cc1Nc1cccc(-c2ncc(F)cn2)c1OC` (stereo not drawn) [Example K175], the DC50 is over 100 nM.
Same read-out and setting: under `CNC(=O)c1cnc(Nc2cc(CN3CCN(c4cccc5c4n(C)c(=O)n5C4CCC(=O)NC4=O)CC3)ccn2)cc1Nc1cccc(-c2ncc(F)cn2)c1OC` (stereo not drawn) [Example K176] stands over 100 nM; under `CNC(=O)c1cnc(Nc2ccc(CN3CCN(c4ccc5c(c4)n(C)c(=O)n5C4CCC(=O)NC4=O)CC3)cn2)cc1Nc1cccc(-c2ncc(F)cn2)c1OC` (stereo not drawn) [Example K177], over 100 nM; under `CNC(=O)c1cnc(Nc2ccc(C(=O)N(C)C3CCN(c4ccc5c(c4)n(C)c(=O)n5C4CCC(=O)NC4=O)CC3)cn2)cc1Nc1cccc(-c2ncc(F)cn2)c1OC` (stereo not drawn) [Example K178], over 100 nM.
For `COc1c(Nc2cc(Nc3cc(C(=O)NCCCCc4cccc5c4n(C)c(=O)n5C4CCC(=O)NC4=O)ccn3)ncc2C(=O)NC2CC2)cccc1-c1ncc(F)cn1` (stereo not drawn) [Example K179], the DC50 is over 100 nM.
For the molecule `COc1c(Nc2cc(Nc3ccc(C(=O)NCCCCc4cccc5c4n(C)c(=O)n5C4CCC(=O)NC4=O)cn3)ncc2C(=O)NC2CC2)cccc1-c1ncc(F)cn1` (stereo not drawn) [Example K180], the DC50 was over 100 nM.
On the same count and under the same terms, for `CCNC(=O)c1cnc(Nc2cc(C(=O)NCCCCc3cccc4c3n(C)c(=O)n4C3CCC(=O)NC3=O)ccn2)cc1Nc1cccc(-c2ncc(F)cn2)c1OC` (stereo not drawn) [Example K181] the value was over 100 nM; for `CCNC(=O)c1cnc(Nc2ccc(C(=O)NCCCCc3cccc4c3n(C)c(=O)n4C3CCC(=O)NC3=O)cn2)cc1Nc1cccc(-c2ncc(F)cn2)c1OC` (stereo not drawn) [Example K182], over 100 nM; for `CNC(=O)c1cnc(NC(=O)NCCCCCCCCCc2cccc3c2n(C)c(=O)n3C2CCC(=O)NC2=O)cc1Nc1cccc(-c2ncc(F)cn2)c1OC` (stereo not drawn) [Example K183], over 100 nM.
For the molecule `CNC(=O)c1cnc(NC(=O)NCCCCCCCCc2cccc3c2n(C)c(=O)n3C2CCC(=O)NC2=O)cc1Nc1cccc(-c2ncc(F)cn2)c1OC` (stereo not drawn) [Example K184], the 50% degradation concentration (DC50) was over 100 nM.
Same read-out and setting: for `CNC(=O)c1cnc(NC(=O)NCCCCCCCc2cccc3c2n(C)c(=O)n3C2CCC(=O)NC2=O)cc1Nc1cccc(-c2ncc(F)cn2)c1OC` (stereo not drawn) [Example K185] the value was over 100 nM; for `CNC(=O)c1cnc(NC(=O)NCCCCCCCCCc2ccc3c(c2)n(C)c(=O)n3C2CCC(=O)NC2=O)cc1Nc1cccc(-c2ncc(F)cn2)c1OC` (stereo not drawn) [Example K186], over 100 nM; for `CNC(=O)c1cnc(NC(=O)NCCCCCCCCc2ccc3c(c2)n(C)c(=O)n3C2CCC(=O)NC2=O)cc1Nc1cccc(-c2ncc(F)cn2)c1OC` (stereo not drawn) [Example K187], over 100 nM.
Take `CNC(=O)c1cnc(NC(=O)NCCCCCCCc2ccc3c(c2)n(C)c(=O)n3C2CCC(=O)NC2=O)cc1Nc1cccc(-c2ncc(F)cn2)c1OC` (stereo not drawn) [Example K188]: the DC50 was over 100 nM.
On the same count and under the same terms, under `CNC(=O)c1cnc(Nc2ccc(C(=O)NCCCCc3cccc4c3n(C)c(=O)n4C3CCC(=O)NC3=O)cn2)cc1Nc1cccn(C)c1=O` (stereo not drawn) [Example K189] stands 10 to 100 nM.

The record behind these values is patent US20250051338A1, “TYK2 DEGRADERS AND USES THEREOF” (Kymera Therapeutics, Inc., priority 2021, published 2025).
